From publication PMC5025651, “Reprofiled anthelmintics abate hypervirulent stationary-phase Clostridium difficile” (Scientific Reports, 2016)
≈ marks a conversion by molar mass, not a printed value.

Tests used:
[1] = test system: C. difficile strain 4118 (CD4118, ATCC BAA-1870, ribotype 027); assay: MIC by broth microdilution; format: cell-based, Clostridium difficile; details: for MIC: Clostridioides difficile, ATCCBAA1870, BHIS broth, anaerobic, 20–24 h, n = 2, read-out: MIC C. difficile 4118; for in vitro activity against CD4118 (in words): growth inhibition, MIC assay
[2] = test system: C. difficile strain 630 (CD630, ATCC BAA-1382-FZ, ribotype 012); assay: MIC by broth microdilution; format: cell-based, Clostridium difficile; details: for MIC: Clostridioides difficile, ATCCBAA1382, BHIS broth, anaerobic, 20–24 h, n = 2; for in vitro activity against CD630 (in words): growth inhibition, MIC assay
S. epidermidis 1457 = assay: MIC by broth microdilution; format: cell-based; details: Staphylococcus epidermidis; S. epidermidis 1457; CAMHB, aerobic; duplicate; read-out: MIC
P. distasonis ATCC 8503 = assay: MIC by broth microdilution; format: cell-based; details: Parabacteroides distasonis, ATCC8503; P. distasonis ATCC 8503; supplemented Brucella broth, anaerobic; duplicate; read-out: MIC
[3] = test system: L. reuteri Strain CF48-3A; assay: MIC by broth microdilution; format: cell-based, Lactobacillus reuteri; details: Limosilactobacillus reuteri; L. reuteri CF48-3A; CAMHB with 5% laked horse blood, ~48 h; duplicate; read-out: MIC
L. plantarum ATCC 8014 = assay: MIC by broth microdilution; format: cell-based; details: Lactiplantibacillus plantarum, ATCC8014; L. plantarum ATCC 8014; CAMHB with 5% laked horse blood, ~48 h; duplicate; read-out: MIC
A. baumannii M2 = assay: MIC by broth microdilution; format: cell-based; details: Acinetobacter baumannii; A. baumannii M2; CAMHB, aerobic; duplicate; read-out: MIC
[4] = test system: B. longum subsp. longum Strain 44B; assay: MIC by broth microdilution; format: cell-based; details: Bifidobacterium longum; B. longum subsp. longum 44B; LSM broth, anaerobic; duplicate; read-out: MIC
[5] = test system: B. breve Strain EX336960VC19; assay: MIC by broth microdilution; format: cell-based; details: Bifidobacterium breve; B. breve EX336960VC19; LSM broth, anaerobic; duplicate; read-out: MIC
B. subtilis ATCC 6051 = assay: MIC by broth microdilution; format: cell-based; details: Bacillus subtilis, ATCC6051; B. subtilis ATCC 6051; CAMHB, aerobic; duplicate; read-out: MIC
[6] = test system: L. johnsonii Strain 135-1-CHN; assay: MIC by broth microdilution; format: cell-based; details: Lactobacillus johnsonii, STRAIN1351CHN; L. johnsonii 135-1-CHN; CAMHB with 5% laked horse blood, ~48 h; duplicate; read-out: MIC
[7] = test system: C. clostridioforme ATCC 25537; assay: MIC by broth microdilution; format: cell-based, Clostridium clostridioforme; details: Clostridium, ATCC25537; C. clostridioforme ATCC 25537; BHIS, anaerobic; duplicate; read-out: MIC
S. aureus RN4220 = assay: MIC by broth microdilution; format: cell-based; details: Staphylococcus aureus, CAMHB, aerobic, duplicate
P. aeruginosa PAO1 = assay: MIC by broth microdilution; format: cell-based; details: Pseudomonas aeruginosa; P. aeruginosa PAO1; CAMHB, aerobic; duplicate; read-out: MIC
C. sporogenes ATCC 15579 = assay: MIC by broth microdilution; format: cell-based; details: Clostridium sporogenes, ATCC15579, BHIS, anaerobic, duplicate
P. nigrescens ATCC 33563 = assay: MIC by broth microdilution; format: cell-based; details: Prevotella nigrescens, ATCC33563; P. nigrescens ATCC 33563; supplemented Brucella broth, anaerobic; duplicate; read-out: MIC
[8] = test system: B. fragilis Strain CL05T00C42; assay: MIC by broth microdilution; format: cell-based; details: Bacteroides fragilis; B. fragilis CL05T00C42; supplemented Brucella broth, anaerobic; duplicate; read-out: MIC
[9] = test system: B. thetaiotaomicron ATCC 29148; assay: microbe, parasite or virus in culture; format: cell-based; details: Bacteroides thetaiotaomicron, ATCC29148; B. thetaiotaomicron ATCC 29148; supplemented Brucella broth, anaerobic; duplicate; read-out: MIC

Structure (SMILES) | MIC [1] | in vitro activity against CD4118 (in words) [1] | MIC [2] | in vitro activity against CD630 (in words) [2] | other results
O=C(Nc1ccc(Oc2ccccc2)cc1)c1cc(I)cc(I)c1O [Compound 5a] | 1 µg/mL (≈ 1.79 µM) | exhibited in vitro activity | 0.5 µg/mL (≈ 0.897 µM) | exhibited in vitro activity | 
O=C(NCCc1ccc(Cl)cc1Cl)c1cc(I)cc(I)c1O [Compound 7i] | 0.5 µg/mL (≈ 0.89 µM) |  | 0.25 µg/mL (≈ 0.445 µM) |  | 
O=C(NCCc1cccc(Cl)c1)c1cc(I)cc(I)c1O [Compound 7g] | 1 µg/mL (≈ 1.9 µM) |  | 1 µg/mL (≈ 1.9 µM) |  | 
O=C(Nc1ccccc1Cl)c1cc(I)cc(I)c1O [Compound 7c] | 8 µg/mL (≈ 16 µM) |  | 8 µg/mL (≈ 16 µM) |  | 
O=C(Nc1ccc2ccccc2c1)c1cc(I)cc(I)c1 [Compound 6c] | > 32 µg/mL | inactive | > 32 µg/mL | inactive | 
COc1c(I)cc(I)cc1C(=O)Nc1ccc2ccccc2c1 [Compound 6b] | > 32 µg/mL | inactive | > 32 µg/mL | inactive | 
COc1c(I)cc(I)cc1C(=O)Nc1ccc(Oc2ccc(Cl)cc2)cc1 [Compound 5h] | > 32 µg/mL | inactive | > 32 µg/mL | inactive | 
O=C(Nc1ccc(I)cc1)c1cc(I)cc(I)c1O [Compound 7d] | 0.25 µg/mL (≈ 0.423 µM) |  | 0.13 µg/mL (≈ 0.22 µM) |  | 
COc1c(I)cc(I)cc1C(=O)Nc1ccc(Oc2ccccc2)cc1 [Compound 5b] | > 32 µg/mL | inactive | > 32 µg/mL | inactive | 
O=C(NCCc1ccc(Cl)cc1)c1cc(I)cc(I)c1O [Compound 7h] | 0.5 µg/mL (≈ 0.948 µM) |  | 0.25 µg/mL (≈ 0.474 µM) |  | 
O=C(Nc1ccc2ccccc2c1)c1cc(I)cc(I)c1O [Compound 6a] | 0.5 µg/mL (≈ 0.971 µM) | exhibited in vitro activity | 0.5 µg/mL (≈ 0.971 µM) | exhibited in vitro activity | MIC (S. epidermidis 1457): 0.06 µg/mL (≈ 0.116 µM); MIC (P. distasonis ATCC 8503): 16 µg/mL (≈ 31.1 µM); MIC [3]: 32 µg/mL (≈ 62.1 µM); MIC (L. plantarum ATCC 8014): > 32 µg/mL; MIC (A. baumannii M2): > 32 µg/mL; MIC [4]: 32 µg/mL (≈ 62.1 µM); MIC [5]: 32 µg/mL (≈ 62.1 µM); MIC (B. subtilis ATCC 6051): 0.06 µg/mL (≈ 0.116 µM); MIC [6]: 32 µg/mL (≈ 62.1 µM); MIC [7]: 4 µg/mL (≈ 7.77 µM); MIC (S. aureus RN4220): 0.25 µg/mL (≈ 0.485 µM); MIC (P. aeruginosa PAO1): > 32 µg/mL; MIC (C. sporogenes ATCC 15579): 8 µg/mL (≈ 15.5 µM); MIC (P. nigrescens ATCC 33563): 8 µg/mL (≈ 15.5 µM); MIC [8]: 32 µg/mL (≈ 62.1 µM); MIC [9]: > 32 µg/mL
O=C(Nc1ccc(Oc2ccccc2)cc1)c1cc(I)cc(I)c1 [Compound 5c] | > 32 µg/mL | inactive | > 32 µg/mL | inactive | 
O=C(Nc1ccc(Cl)cc1)c1cc(I)cc(I)c1O [Compound 7b] | 0.5 µg/mL (≈ 1 µM) |  | 0.25 µg/mL (≈ 0.501 µM) |  | MIC (S. epidermidis 1457): ≤ 0.03 µg/mL; MIC (P. distasonis ATCC 8503): 8 µg/mL (≈ 16 µM); MIC [3]: 32 µg/mL (≈ 64.1 µM); MIC (L. plantarum ATCC 8014): 32 µg/mL (≈ 64.1 µM); MIC (A. baumannii M2): 32 µg/mL (≈ 64.1 µM); MIC [4]: 8 µg/mL (≈ 16 µM); MIC [5]: 8 µg/mL (≈ 16 µM); MIC (B. subtilis ATCC 6051): 0.06 µg/mL (≈ 0.12 µM); MIC [6]: 32 µg/mL (≈ 64.1 µM); MIC [7]: 16 µg/mL (≈ 32 µM); MIC (S. aureus RN4220): 0.06 µg/mL (≈ 0.12 µM); MIC (P. aeruginosa PAO1): > 32 µg/mL; MIC (C. sporogenes ATCC 15579): 16 µg/mL (≈ 32 µM); MIC (P. nigrescens ATCC 33563): 4 µg/mL (≈ 8.01 µM); MIC [8]: 32 µg/mL (≈ 64.1 µM); MIC [9]: > 32 µg/mL
O=C(Nc1ccc(Oc2ccc(F)cc2)cc1)c1cc(I)cc(I)c1O [Compound 5e] | 0.13 µg/mL (≈ 0.226 µM) | exhibited in vitro activity | 0.13 µg/mL (≈ 0.226 µM) | exhibited in vitro activity | 
O=C(Nc1ccc(Oc2ccc(Cl)cc2)cc1)c1cc(I)cc(I)c1O [Compound 5g] | 0.25 µg/mL (≈ 0.423 µM) | exhibited in vitro activity | 0.13 µg/mL (≈ 0.22 µM) | exhibited in vitro activity | 
O=C(Nc1ccc2c(c1)Cc1ccccc1-2)c1cc(I)cc(I)c1O [Compound 7e, N-(9H-Fluoren-2-yl)-2-hydroxy-3,5-diiodobenzamide] | 0.5 µg/mL (≈ 0.904 µM) |  | 0.25 µg/mL (≈ 0.452 µM) |  | 
CN(C(=O)c1cc(I)cc(I)c1O)c1ccc(Oc2ccccc2)cc1 [Compound 5d] | > 32 µg/mL | inactive | > 32 µg/mL | inactive | 
O=C(NCCc1ccccc1Cl)c1cc(I)cc(I)c1O [Compound 7f] | 2 µg/mL (≈ 3.79 µM) |  | 2 µg/mL (≈ 3.79 µM) |  | 
Cc1ccc(Oc2ccc(NC(=O)c3cc(I)cc(I)c3O)cc2)cc1 [Compound 5f] | 0.25 µg/mL (≈ 0.438 µM) | exhibited in vitro activity | 0.13 µg/mL (≈ 0.228 µM) | exhibited in vitro activity | 
O=C(Nc1ccc(-c2ccccc2)cc1)c1cc(I)cc(I)c1O [Compound 7a] | 1 µg/mL (≈ 1.85 µM) |  | 0.5 µg/mL (≈ 0.924 µM) |  | 
